Laboratory results reported in patent US7618968B2, “Aryl triazines as LPAAT-β inhibitors and uses thereof” (Cell Therapeutics, Inc., priority 2001, dated 2009).

Target: T1, LPAAT-β (Homo sapiens, UniProt O15120)
T1 construct: the full-length human LPAAT-β cDNA was amplified by PCR; poly-histidine tag (from pFastBac HTc vector) (N); made in house; host or cells: Sf9 insect cells (baculovirus); membrane fraction used
T1 sequence (O15120 24-278): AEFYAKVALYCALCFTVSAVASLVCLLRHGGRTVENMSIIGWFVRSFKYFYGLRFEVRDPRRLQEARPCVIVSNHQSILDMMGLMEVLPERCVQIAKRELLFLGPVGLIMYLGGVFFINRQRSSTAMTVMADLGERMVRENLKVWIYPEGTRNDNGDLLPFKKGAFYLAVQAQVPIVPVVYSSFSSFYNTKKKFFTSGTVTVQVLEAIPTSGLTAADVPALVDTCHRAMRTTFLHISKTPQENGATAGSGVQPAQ
Assay: LPAAT-β cell-free assay (colorimetric primary screen, radiometric/fluorescent TLC secondary assay)
Type: biochemical
Conditions: Sf9 cell membrane overexpressing LPAAT-β
Source text: A. Production of Recombinant LPAAT-β for Assays
For the construction of Baculovirus expression vectors, the full-length human LPAAT-β cDNA was amplified by PCR from the DNA template pCE9.LPAAT-β (West et al., DNA Cell Biol. 16:691-701 (1997)) using the primers 5′-[…] […] […] […]-3′ (olpb1F; SEQ ID NO:1) and 5′-[…] […] […]-3′ (olpb1R; SEQ ID NO:2). The ˜870 bp fragment generated was reamplified by PCR using the primers 5′[…] […] […] […] ATC-3′ (olpb2F; SEQ ID NO:3) and 5′-[…] […] […]-3′ (olpb1R; SEQ ID NO:2). The ˜890 bp fragment generated was then cleaved with Sal I and Xba I for insertion into pFastBac™ HTc vector (Life Technologies, Gaithersberg, Md.) between the Sal I and Xba I sites for the generation of the plasmid pFB.LPAAT-β. This plasmid was then transformed into E. coli DH10Bac™ (Life Technologies, Gaithersberg, Md.) for the generation of recombinant Bacmid DNA for transfection in HighFive (Invitrogen, San Diego, Calif.) or SF9 insect cells for the production of recombinant Baculovirus stocks using the protocol described in the Bac-to-Bac® Baculovirus Expression System (Life Technologies, Gaithersberg, Md.), a eukaryotic expression system for generating recombinant baculovirus through site-specific transposition in E. coli. Viral stocks harvested from the transfected cells can then be used to infect fresh insect cells for the subsequence expression of LPAAT-β fusion protein with a poly-histidine tag and a myc-epitope near its N-terminus. The membrane fraction from these Sf9 cells would be the source of LPAAT enzyme.
B. Preparation of Cell Membranes from Sf9 Cells
For the preparation of membranes from Sf9 Cells, all steps are performed on ice or at 4° C. Sf9 cell pellets (˜10^8 cells) were thawed and resuspended in 1-2 ml of buffer A (20 mM Hepes, pH 7.5, 1 mM DTT, 1 mM EDTA, 20% w/v glycerol, 1 mM Benzamidine, 1 μg/ml soybean trypsin inhibitor (SBTI), 1 μg/ml pepstatin A) w/o DTT but with 1 mM Pefabloc. The cells were lysed by sonication using a Branson Sonifier at output=2, duty cycle=2, 10 pulses each at 10s. with the tip of small sonicator probe submerged but not touching the walls. DTT was then added to 1 mM from a 1 M stock. The samples were centrifuged at 1500 rpm for 5 min. The low speed supernatant was saved and centrifuged (TLA 100.3 rotor, polycarbonate tubes, 2 ml/tube or 1.5 ml/tube minimum) at 100000×g for 1 hr. The high speed pellet was resuspend in Buffer A with a probe sonicator (10 pulses @ output #2 and duty cycle 20%) as a source of LPAAT enzyme.
C. Assay of LPAAT-β Activity
LPAAT-β catalyzes the transfer of an acyl group from a donor such as acyl-CoA to LPA. The transfer of the acyl group from acyl-CoA to LPA leads to the release of free CoA, which can be reacted with the thiol reagent, 5,5′-dithiobis(2-nitrobenzoic acid) (DTNB). The reaction between DTNB and the free sulfhydryl group from CoA generates a yellow-colored product, 3-carboxylato-4-nitrothiophenolate (CNP), that absorbs at 413 nm. LPAAT-β derived from Sf9 cell membrane overexpressing LPAAT-β were resuspended in HEPES saline buffer (20 mM HEPES pH 7.5, 150 mM NaCl), 1 mg/ml BSA and 72 μl aliquots were distributed into 96-well microtiter plates. 8 μl of compound of interest at 200 μM dissolved in 100% DMSO was added into each well. 20 μl of 1 mM 18:1-CoA and 1 mM sn-1-18:1 lysoPA was then added to each well to initiate the reaction and allowed to run at room temperature for 25 min. 100 μl of 1 mM DTNB in 100% ethanol was then added to each well to quench the reaction and for color development. The absorbance at 405 nm, measured using a spectrophotometer plate reader, is proportional to the activity of LPAAT-β in the sample. This colorimetric assay was used for the high throughput screening of LPAAT inhibitors.

Row | SMILES | IC50 [nM]
1 | CCOc1ccc(Cl)cc1-c1nc(N)nc(Nc2ccc([N+](=O)[O-])cc2)n1 [Example 54, 6-(5-Chloro-2-ethoxyphenyl)-N-(4-nitrophenyl)-[1,3,5]triazine-2,4-diamine] | 120
2 | Cc1ccc(Cl)cc1-c1nc(N)nc(Nc2ccc(Br)cc2)n1 [Example 11, N-2-(4-Bromophenyl)-6-(5-chloro-2-methylphenyl)-[1,3,5]triazine-2,4-diamine] | 60
3 | Cc1ccc(Cl)cc1-c1nc(N)nc(Nc2ccc(COC(=O)C[C@H](N)C(=O)O)cc2)n1 [Example 73, (S)-2-Amino-succinic acid 4-{4-[4-amino-6-(5-chloro-2-methyl-phenyl)-[1,3,5]triazin-2-ylamino]-benzyl}ester] | 2100
4 | C=Cc1ccc(Nc2nc(N)nc(-c3cc(Cl)ccc3C)n2)cc1 [Example 67, 6-(5-Chloro-2-methyl-phenyl)-N-(4-vinyl-phenyl)-[1,3,5]triazine-2,4-diamine] | 710
5 | NCc1nc(Nc2ccc(Br)cc2)nc(-c2cc(Cl)ccc2Cl)n1 [Example 27] | 2700
6 | CNc1ccc(Cl)cc1-c1nc(N)nc(Nc2ccc(Cl)cc2)n1 [Example 44, 6-(5-Chloro-2-methylaminophenyl)-N-(4-chlorophenyl)-[1,3,5]triazine-2,4-diamine] | 1500
7 | CC(C)Oc1ccc(Cl)cc1-c1nc(N)nc(Nc2ccc(Cl)cc2)n1 [Example 52, 6-(5-Chloro-2-isopropoxy-phenyl)-N-(4-chloro-phenyl)-[1,3,5]triazine-2,4-diamine] | 620
8 | Nc1nc(Nc2ccc(Br)cc2)nc(-c2cc(Cl)ccc2C(F)(F)F)n1 [Example 40, N-(4-bromophenyl)-6-(5-chloro-2-trifluoromethylphenyl)-[1,3,5]triazine-2,4-diamine] | 2600
9 | Cc1ccc(Cl)cc1-c1nc(N)nc(Nc2ccc(CCO)cc2)n1 [Example 57, 2-{4-[4-Amino-6-(5-chloro-2-methyl-phenyl)-[1,3,5]triazin-2-ylamino]-phenyl}-ethanol] | 140
10 | Cc1ccc(Cl)cc1-c1nc(N)nc(Nc2ccc(COC(=O)[C@@H](N)CCCNC(=N)N)cc2)n1 [Example 75, (S)-2-Amino-5-guanidino-pentanoic acid 4-[4-amino-6-(5-chloro-2-methyl-phenyl)-[1,3,5]triazin-2-ylamino]-benzyl ester] | 970
11 | Cc1ccc(Cl)cc1-c1nc(N)nc(Nc2ccc(N=[N+]=[N-])cc2)n1 [Example 36, 6-(5-Chloro-2-methyl-phenyl)-N-(4-azido-phenyl)-amino-[1,3,5]triazine-2,4-diamine] | 880
12 | Nc1nc(Nc2ccc3c(c2)OCO3)nc(-c2cc(Cl)ccc2Cl)n1 [Example 82, N-Benzo[1.3]dioxol-5-yl-6-(2,5-dichloro-phenyl)-[1,3,5]triazine-2,4-diamine] | 300
13 | Nc1nc(Nc2ccc(Cl)cc2)nc(-c2cc(Cl)ccc2F)n1 [Example 85, 6-(5-Chloro-2-fluoro-phenyl)-N-(4-chloro-phenyl)-[1,3,5]triazine-2,4-diamine] | 70
14 | COc1ccc(OC)c(-c2nc(N)nc(Nc3ccc(Cl)cc3)n2)c1 [Example 17, N-(4-chlorophenyl)-6-(2,5-dimethoxyphenyl)-[1,3,5]triazine-2,4-diamine] | 1000
15 | CCCOc1ccc(Cl)cc1-c1nc(N)nc(Nc2ccc(Cl)cc2)n1 [Example 50, N-(4-Chloro-phenyl)-6-(5-chloro-2-propoxy-phenyl)-[1,3,5]triazine-2,4-diamine] | 200
16 | Cc1ccc(Cl)cc1-c1nc(C#N)nc(Nc2ccc(Br)cc2)n1 [Example 28] | 420
17 | CNC(=O)c1cc(Nc2nc(N)nc(-c3cc(Cl)ccc3C)n2)ccc1Cl [Example 43, 5-[4-amino-6-(5-chloro-2-methylphenyl)-[1,3,5]triazin-2-ylamino]-2-chloro-N-methylbenzamide] | 400
18 | Nc1nc(Nc2ccc3cn[nH]c3c2)nc(-c2cc(Cl)ccc2Cl)n1 [Example 48, 6-(2,5-Dichloro-phenyl)-N-(1H-indazol-6-yl)-[1,3,5]triazine-2,4-diamine] | 110
19 | Nc1nc(Nc2cccc(Cl)c2)nc(-c2cc(Cl)ccc2Cl)n1 [Example 90, N-(3-chlorophenyl)-6-(2,5-dichlorophenyl)-[1,3,5]triazine-2,4-diamine] | 4800
